Data as given in paper PMC11530130, “Peripherally restricted PICK1 inhibitor mPD5 ameliorates pain behaviors in murine inflammatory and neuropathic pain models” (JCI Insight, 2024).
Values joined by “and” are separate entries in the source; they are usually repeats but may differ in a detail not shown here. Equal entries are not always repeated.

Columns and labels:
[1] = Mass spectrometry biodistribution (plasma, CSF, spinal cord, brain); type: in vivo, mouse
Experimental: K2 tubes at 5 min, 30 min, 1 hour, 5 hours, 12 hours, 24 hours, and 48 hours and centrifuged (app 4 ℃, 3200 g, 10 min) for collection of plasma. Plasma was transferred to 96 well plates and quick-frozen over dry ice and kept at -60 ℃ until LC-MS/MS analysis. For LC-MS/MS analysis plasma with 0.25% Triton X100 in 50% MeOH/water (6 µL) was quenched with 160 µL of IS1 (internal standard in MeOH (Labetalol & tolbutamide & Verapamil & dexamethasone & glyburide & Celecoxib 100 ng/mL for each)) and the mixture was vortexed for 10 min at 800 rpm and centrifuged for 15 min at 3220 × g at 4 ℃. […] Plasma half-lives were determined from three points in the elimination phase. In a separate experiment, biodistribution was assessed (plasma, CSF, spinal cord, whole brain) at two hours after single dose of 10 µmol/kg or one hour after last injection in the repeated administration paradigm (10 µmol/kg followed by four s.c. administrations of 2 µmol/kg with one hour between). […] Plasma, CSF, and tissue samples (kept at 4 ℃) were processed and analysed as described above.
Concentration 10 µmol/kg: Wild type mice were habituated to the experimental room for a minimum of 60 min before initiation of the experiment. […] A video camera placed above the open field recorded the animals’ behaviour and Ethovision XT 13 (Noldus) was used to track the distance travelled by the […]

[2] = test system: mice, CFA model of inflammatory pain; test: CFA model, Hargreaves test (thermally evoked pain); type: in vivo, mouse; conditions: s.c. 10 μmol/kg
Experimental: Induction of inflammatory pain (CFA model).
Injury was induced on the right hind paw, whereas the contralateral left hind paw was used as internal control of the C57BL/6J male and female mice (Janvier, France). The inflammatory pain was induced by injection of 50 μL undiluted Complete Freund’s Adjuvant (CFA) (F5881, Sigma) unilaterally into the intraplantar surface of the right hind paw, whereas control mice were injected with the same amount of 0.9 % saline (B. Braun, Germany). All intraplantar injections were performed with an insulin needle (0.3 mL BD Micro-Fine) while the animal was under isoflurane anaesthesia (2%) for maximum 60 seconds. Von Frey was applied up to 11 days after unilateral CFA injection depending on the experiment. (For Figure 3A, the experiment was run in cohort with Figure 1A of (9)).
Induction of neuropathic pain (SNI model). […]
Post-surgical analgesia included s.c. injection of 5 mg/kg carprofen (Carprosan vet, 50 mg/mL mixed 1:25 in sterile ddH2O, Dechra, Le Vet Beheer B.V., Netherlands, Batch: 050520) right after surgery and the following day. Post-surgical care included daily severity scoring for four days, and medical clips removed. X-ray imaging (IVIS Lumina XR Apparatus, Caliper Life Sciences, Belgium) was conducted to estimate the relative femoral bone density of the ipsilateral femur at baseline and at the experimental endpoint. The test battery of the CIBP model was carried out 45 or 90 min after morphine and mPD5 administration respectively to accommodate the peak efficacy […]
Mechanically evoked pain (von Frey test).
Unless otherwise specified, von Frey occurred as described in the following. Animals were habituated to the experimental room for a minimum of 60 min before initiation of the experiment. Mechanical paw withdrawal threshold (PWT) was determined by von Frey measurements of both hind paws. Von Frey filaments ranging from 0.04 to 2 g (g = gram- […]
Filaments in ascending order were applied to the frontocentral plantar surface of the hind paws.
Mice were placed in PVC plastic boxes (11.5 cm x 14 cm) on a wire mesh and allowed minimum 20 min habituation prior of experiment initiation. Each von Frey hair was applied five times with adequate resting periods between each application and number of withdrawals recorded. The withdrawal threshold was determined as the von Frey filament eliciting at least three positive trials out of the five applications in two consecutive filaments. A positive trial was defined as sudden paw withdrawal, flinching and/or paw licking induced by the filament.
For the CIBP model, two habituation sessions were performed on separated days with mice placed in the von Frey equipment for 1-1.5 hours in the presence of the experimenter on day one and random von Frey pocking with the 0.6 g filament on day two. Von Frey monofilaments (North Coast Touch Test, North Coast Medical, Inc.) with target forces of 0.04g, 0.07g, 0.16g, […]
down method” (PWT=10Xf+kδ) starting with the 0.6 g filament. Positive response was defined as; withdrawal, shaking or grooming of paw following a 2-3 second stimulation. In case, of unclear response, stimulus was repeated after 10-15 seconds.
For the STZ model, the mechanical threshold response of the injected mice was measured with […]
injection of test compounds on day 14, mechanical threshold was measured at 1 hour, 2 hours, 4 hours and 6 hours and again on day 15. […]
Thermally evoked pain (Hargreaves test).
A baseline Hargreaves test was performed on day 0 before inflammatory pain was induced as described in section 2.13. In the Hargreaves test, the mouse was placed in a container on a glass table and left to habituate for at least 15 min. Using the Hargreaves apparatus, a heat beam from beneath was directed towards the hind paws of the mouse, and the paw withdrawal time […]
was registered automatically. The cut off was set to maximum 30 seconds to avoid skin injury and the experiment was repeated 5 times for each paw with at least five min in between […]
measurements. […]

CCCCCCCCCCCCCC(=O)N(CCOCCOCCC(=O)N[C@@H](Cc1c[nH]cn1)C(=O)N[C@@H](Cc1c[nH]c2ccccc12)C(=O)N[C@@H](CC(C)C)C(=O)N[C@@H](CCCCN)C(=O)N[C@H](C(=O)O)C(C)C)CCOCCOCCC(=O)N[C@@H](Cc1c[nH]cn1)C(=O)N[C@@H](Cc1c[nH]c2ccccc12)C(=O)N[C@@H](CC(C)C)C(=O)N[C@@H](CCCCN)C(=O)N[C@H](C(=O)O)C(C)C [mPD5, myristoyl-NPEG4-(HWLKV)2]
level at 1 h ([1]; C57BL/6NRj, mouse, plasma, sc, 10 umol/kg, 1 hour after s.c. 10 μmol/kg, LLOQ = 2 ng/mL, n = 3): 3280 ± 615 ng/mL | detection in CSF, spinal cord, and brain tissue by mass spectrometry ([1]; after s.c. injection in mice): did not detect | effect on the contralateral paw (Hargreaves) [2]: No effect | effect on thermal hypersensitivity of the ipsilateral paw ([2]; 1 hour after administration): reverted | paw withdrawal latency (Hargreaves), individual mice ([2]; contralateral paw, 1 h): 10.93 and 8.17 and 12.67 and 7.53 and 10.3 and 14.03 | paw withdrawal latency (Hargreaves), individual mice ([2]; contralateral paw, 5 h): 15.97 and 9.47 and 12.27 and 10.97 and 14.37 and 8.3 | paw withdrawal latency (Hargreaves), individual mice ([2]; contralateral paw, 21 h): 15.23 and 12.33 and 19.73 and 9.13 and 7.03 and 15.57 | paw withdrawal latency (Hargreaves), individual mice ([2]; ipsilateral paw, 1 h): 8.4 and 16.3 and 10.87 and 15.83 and 12.17 and 11.77 | paw withdrawal latency (Hargreaves), individual mice ([2]; ipsilateral paw, 5 h): 10.8 and 9.77 (2×) and 5.13 and 6.33 and 4.77 | paw withdrawal latency (Hargreaves), individual mice ([2]; ipsilateral paw, 21 h): 6.3 and 9.13 and 2.77 and 3.3 and 2.37 and 11.83
